Measured values: PubChem BioAssay (NCI)
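The compound was tested at five concentrations on cells cultured in 96-well plates, with a 48-hour exposure period. At the GI50, growth is halved. TGI denotes the concentration required for complete inhibition of growth.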

Assays:
Assay in all cases: NCI anticancer screen, dose series, 48 h; in the data active = GI50 below about 0.43 µM; inactive = the rest
SK-MEL-28 melanoma = test system: SK-MEL-28 melanoma
MDA-MB-435 = test system: MDA-MB-435
A549 NSCLC = test system: A549 NSCLC
HCT-116 colon = test system: HCT-116 colon
CAKI-1 renal = test system: CAKI-1 renal
OVCAR-3 ovarian = test system: OVCAR-3 ovarian
SR leukemia = test system: SR leukemia
UO-31 renal = test system: UO-31 renal
NCI-H522 lung = test system: NCI-H522 lung
HCT-15 colon = test system: HCT-15 colon
NCI-H460 lung = test system: NCI-H460 lung
SN12C renal = test system: SN12C renal
HCC-2998 colon = test system: HCC-2998 colon
TK-10 renal = test system: TK-10 renal
HL-60(TB) leukemia = test system: HL-60(TB) leukemia
SK-MEL-2 melanoma = test system: SK-MEL-2 melanoma
RXF 393 renal = test system: RXF 393 renal
LOX IMVI melanoma = test system: LOX IMVI melanoma
786-0 renal = test system: 786-0 renal
OVCAR-8 ovarian = test system: OVCAR-8 ovarian
OVCAR-4 ovarian = test system: OVCAR-4 ovarian
RPMI-8226 leukemia = test system: RPMI-8226 leukemia
SF-268 CNS = test system: SF-268 CNS
M14 melanoma = test system: M14 melanoma
BT-549 breast = test system: BT-549 breast
SK-MEL-5 melanoma = test system: SK-MEL-5 melanoma
SK-OV-3 ovarian = test system: SK-OV-3 ovarian
SF-295 CNS = test system: SF-295 CNS

CCCCCCCCCCCCCCNc1nc(C(=O)OCC)ncc1-c1ccc(C(F)(F)F)cc1
> 100 µM: TGI (SK-MEL-28 melanoma) | TGI (MDA-MB-435) | TGI (A549 NSCLC) | TGI (HCT-116 colon) | TGI (CAKI-1 renal) | TGI (OVCAR-3 ovarian) | TGI (SR leukemia) | TGI (UO-31 renal) | TGI (NCI-H522 lung) | TGI (HCT-15 colon) | TGI (NCI-H460 lung) | TGI (SN12C renal) | TGI (HCC-2998 colon) | TGI (TK-10 renal) | TGI (HL-60(TB) leukemia) | TGI (SK-MEL-2 melanoma) | TGI (RXF 393 renal) | TGI (LOX IMVI melanoma) | TGI (786-0 renal) | TGI (OVCAR-8 ovarian) | TGI (OVCAR-4 ovarian) | TGI (RPMI-8226 leukemia) | TGI (SF-268 CNS) | TGI (M14 melanoma) | TGI (BT-549 breast) | TGI (SK-MEL-5 melanoma) | TGI (SK-OV-3 ovarian) | TGI (SF-295 CNS)
inactive: GI50 (SK-MEL-28 melanoma) > 100 µM | GI50 (MDA-MB-435) > 100 µM | GI50 (A549 NSCLC) > 100 µM | GI50 (HCT-116 colon) > 100 µM | GI50 (CAKI-1 renal) > 100 µM | GI50 (OVCAR-3 ovarian) > 100 µM | GI50 (SR leukemia) > 100 µM | GI50 (UO-31 renal) > 100 µM | GI50 (NCI-H522 lung) > 100 µM | GI50 (HCT-15 colon) > 100 µM | GI50 (NCI-H460 lung) > 100 µM | GI50 (SN12C renal) > 100 µM | GI50 (HCC-2998 colon) > 100 µM | GI50 (TK-10 renal) > 100 µM | GI50 (HL-60(TB) leukemia) > 100 µM | GI50 (SK-MEL-2 melanoma) > 100 µM | GI50 (RXF 393 renal) > 100 µM | GI50 (LOX IMVI melanoma) > 100 µM | GI50 (786-0 renal) > 100 µM | GI50 (OVCAR-8 ovarian) > 100 µM | GI50 (OVCAR-4 ovarian) 48.1 µM | GI50 (RPMI-8226 leukemia) > 100 µM | GI50 (SF-268 CNS) > 100 µM | GI50 (M14 melanoma) > 100 µM | GI50 (BT-549 breast) > 100 µM | GI50 (SK-MEL-5 melanoma) > 100 µM | GI50 (SK-OV-3 ovarian) > 100 µM | GI50 (SF-295 CNS) > 100 µM
